One data set can be described thus: Inhibition of Influenza A virus H5N1 neuraminidase.
`C/C(=N\NC(=O)Cc1cccc2ccccc12)c1ccc(NC(=O)Cc2cccs2)cc1`: the IC50 was found to be 2.78 µM.

`C/C(=N\NC(=O)c1ccc([N+](=O)[O-])cc1)c1ccc(NC(=O)c2ccco2)cc1`: it took 1.53 µM to reach half-maximal inhibition (IC50).

Regarding `C/C(=N\NC(=O)c1ccc(Cl)cc1)c1ccc(NC(=O)c2ccco2)cc1`, the IC50 came to 21.3 µM.

Regarding `C/C(=N\NC(=O)c1ccc([N+](=O)[O-])cc1)c1ccc(NC(=O)Cc2cccs2)cc1`, the IC50 was found to be 6.1 µM.

`COc1ccc(C(=O)N/N=C(\C)c2ccc(NC(=O)Cc3cccs3)cc2)cc1`: half-maximal inhibition (IC50) required 0.13 µM.

Regarding `C/C(=N\NC(=O)c1ccc(F)cc1)c1ccc(NC(=O)c2ccco2)cc1`, half-maximal inhibition (IC50) was put at 19.4 µM.

For `C/C(=N\NC(=O)Cc1cccc2ccccc12)c1ccc(NC(=O)c2ccco2)cc1`, the IC50 is 46.8 µM.

With `C/C(=N\NC(=O)c1ccc(Cl)cc1)c1ccc(NC(=O)Cc2cccs2)cc1`, the IC50 was 0.31 µM.

`C/C(=N\NC(=O)c1ccc(C(C)(C)C)cc1)c1ccc(NC(=O)Cc2cccs2)cc1`: inhibition was half-maximal at 0.94 µM (IC50).

Compound `COc1ccc(C(=O)N/N=C(\C)c2ccc(NC(=O)c3ccco3)cc2)cc1` displayed an IC50 of 32 µM.

`C/C(=N\NC(=O)c1ccc(F)cc1)c1ccc(NC(=O)Cc2cccs2)cc1` displayed an IC50 of 23.6 µM.

For the compound `C/C(=N\NC(=O)c1ccc(O)cc1)c1ccc(NC(=O)Cc2cccs2)cc1`, the midpoint of inhibition, the IC50, lay at 0.65 µM.

For `C/C(=N\NC(=O)c1ccc(C(C)(C)C)cc1)c1ccc(NC(=O)c2ccco2)cc1`, the IC50 was 28.6 µM.

For the compound `C/C(=N\NC(=O)c1ccc(O)cc1)c1ccc(NC(=O)c2ccco2)cc1`, the IC50 amounted to 0.2 µM.

`CCC(CC)O[C@@H]1C=C(C(=O)O)C[C@H](N)[C@H]1NC(C)=O` [OSELTAMIVIR CARBOXYLATE] registered an IC50 of 0.31 µM.

A short description of the next data set: Cytotoxicity against human A549 cells by SRB assay. In kind it is toxicity, cell-based.
Compound `COc1ccc(C(=O)N/N=C(\C)c2ccc(NC(=O)Cc3cccs3)cc2)cc1` yielded a CC50 of 37.6 µM.

As to `C/C(=N\NC(=O)c1ccc(F)cc1)c1ccc(NC(=O)Cc2cccs2)cc1`, the CC50 turned out to be 55.3 µM.

`CCC(CC)O[C@@H]1C=C(C(=O)O)C[C@H](N)[C@H]1NC(C)=O` [OSELTAMIVIR CARBOXYLATE]: the CC50 amounted to 61.2 µM.

The values are drawn from ChEMBL document CHEMBL5634169 (Bioorg Med Chem Lett, 2024).
